Data from paper PMC10644971 (Bioconjugate chemistry, 2023).

How the values were obtained:
[1] = ref Erazo-Oliveras et al., Nat Methods 2014, 11, 861-867; cited from earlier work
[2] = ref Erazo-Oliveras et al., Cell Chem Biol 2016, 23, 598-607; cited from earlier work
[3] = biological target: 3 (disulfide-linked dimer of fTAT-ST) (HIV); test: covalent SnoopTag/SnoopCatcher ligation followed by SDS-PAGE (in-gel fluorescence, Coomassie) and MALDI-TOF mass spectrometry; SC (40 μM) reacted with 2 (10 μM), or SC (80 μM) with 3 (10 μM), for 1 hour in TBS (20 mM Tris, 150 mM NaCl, pH 7.4); covalent isopeptide bond; products purified by cation exchange chromatography
dfTAT-ST (2) (HIV) = test: as above

| Substance | endosomal escape of the monomeric form [1] | leakage of liposomes mimicking the lipid composition of late endosomes [2] | stoichiometry N [3] [copies] | stoichiometry N (dfTAT-ST (2) (HIV)) [copies] |
| --- | --- | --- | --- | --- |
| CK(TMR)RKKRRQRRR [fTAT, reference compound] | does not mediate detectable endosomal escape | does not cause leakage |  |  |
| SnoopCatcher (SC) (designed binder) |  |  | 2 | 1 |
